Like-named read-outs stand apart in the source and are kept apart here. * marks the point of attachment. Exatecan = CC[C@@]1(O)C(=O)OCc2c1cc1n(c2=O)Cc2c-1nc1cc(F)c(C)c3c1c2[C@@H](N*)CC3
Columns and labels:
[1] = test system: Meth A tumor-bearing mice; test: Antitumor activity, Meth A tumor-bearing mice, single administration on day 7; assay type: in vivo, mouse
Procedure: (§1) Meth A tumor-bearing mice were prepared (7 mice per group) by subcutaneously transplanting 1×10^6 mouse fibrosarcoma Meth A cells into the right inguinal regions of BALB/c male mice (7-week old). On day 7, the drug complex of Example 9 dissolved in distilled water for injection was injected in the tail vein of the Meth A tumor-bearing mice every 4 days 4 times. On day 21 after the transplantation, tumor masses were excised and weighed to calculate the inhibition rate of tumor growth according to the following equation: inhibition rate of tumor growth (%)=[1-(average tumor weight of the group administered with the test sample/average tumor weight of control group)]×100.
Meth A tumor-bearing mice (6 mice per group) were prepared according to a similar manner to that of Example 11 and the antitumor activity was compared to that obtained by single administration of the drug complexes of Examples 8 and 9 once on day 7.
(§2) Meth A tumor-bearing mice (6 mice per group) were prepared according to a similar manner to that of Example 11 and the antitumor activity of the drug complex of Example 15 was examined by single administration in a similar manner to that of Example 12.
as §2, with “1,” for “11”, “41” for “15”, “in the cases of” for “by”, “12, and its antitumor activity was compared to that of the drug compound, per se.” for “12.”
Meth A tumor-bearing mice (6 mice per group) were prepared according to a similar manner to that of Example 11, and the antitumor activity was examined according to a similar method to that in Example 12 by single administration of the drug complexes of Examples 29, 43, and 44, respectively.

[2] = cited from earlier work
SC-6 human gastric tumor = test: Antitumor activity, SC-6 tumor-bearing nude mice, single i.v. administration; assay type: in vivo, human tumor in nude mice; details: for Inhibition rate / Numbers of died mice/mice used: calculated based on the drug compound
Procedure: (§3) SC-6 tumor-bearing nude mice (5 mice per group) were prepared by subcutaneously transplanting a piece of SC-6 human gastric tumor block into the right inguinal regions of nude mice (13AI,B/c-nu/nu, male). On day 27 after the transplantation, the drug complex of Example 15 dissolved in distilled water for injection was given as a single intravenous administration and its antitumor activity was compared to that of the drug compound, per se.

Human lung cancer QG-90 = test: Antitumor activity, human lung cancer QG-90-bearing nude mice, single i.v. administration; assay type: in vivo, human tumor in nude mice; details: for Inhibition rate / Numbers of died mice/mice used: calculated based on the drug compound
Procedure: as §3
Human lung cancer QG-90-bearing nude mice (5 mice per group) were prepared according to a similar manner to that of Example 53. On day 16 after the transplantaion, the drug complex of Example 15 dissolved in distilled water for injection was given as a single intravenous administration and its antitumor activity was compared to that of the drug compound, per se.

[3] = test system: Meth A tumor-bearing mice; test: Pharmacokinetics of the drug complex in Meth A tumor-bearing mice; assay type: in vivo, mouse; details: 10 mg/kg single, calculated as the drug compound
Procedure: Meth A tumor-bearing mice were prepared according to a similar manner to that of Example 11, the drug complex of Example 15 was given as single administration in a similar manner to that of Example 12 (10 mg/kg: calculated as the drug compound), and the change of the drug complex concentration in various tissues was determined.

[4] = test system: Meth A tumor-bearing mice; test: Antitumor activity, Meth A tumor-bearing mice, i.v. every 4 days 4 times; assay type: in vivo, mouse; details: for Inhibition rate: calculated based on the drug compound, day 21
Procedure: as §1

[5] = single administration, compared to the drug compound, per se
[6] = single i.v., compared to the drug compound, per se
[7] = Example 11, every 4 days 4 times

CC[C@@]1(O)C(=O)OCc2c1cc1n(c2=O)Cc2c-1nc1cc(F)c(C)c3c1c2[C@@H](N)CC3 [DX-8951, (1S,9S)-1-amino-9-ethyl-5-fluoro-2,3-dihydro-9-hydroxy-4-methyl-1H,12H-benzo[de]pyrano[3',4':6,7]indolizino[1,2-b]quinoline-10,13(9H,15H)-dione, reference compound]
Inhibition rate ([1]; Example 12 (Table 3), 20 mg/kg single): 59%
Inhibition rate ([1]; Example 12 (Table 3), 60 mg/kg single): 77%
lactone ring equilibrium ([2]; acidic aqueous medium, approximately at pH 3): compound whose lactone ring is closed
lactone ring equilibrium ([2]; basic aqueous medium, approximately at pH 10): compound whose lactone ring is opened

Carboxymethyldextran Polyalcohol-Gly-Gly-Phe-Gly-NH--A' (A--NH2 =DX-8951) [Example 15] ({carboxymethyldextran polyalcohol}-GGFG-Exatecan; also: N-terminus linked to carboxymethyldextran polyalcohol, C-terminus amide-linked to drug residue A' (DX-8951))
Inhibition rate ([1]; Example 52 (table 4), 1.25 mg/kg single, calculated based on the drug compound): 83%
Inhibition rate ([1]; Example 52 (table 4), 2.5 mg/kg single, calculated based on the drug compound): 95%
Inhibition rate ([1]; Example 52 (table 4), 5 mg/kg single, calculated based on the drug compound): 99%
Inhibition rate ([1]; Example 52 (table 4), 10 mg/kg single, calculated based on the drug compound): 100%
antitumor activity (in words) [1, 5]: remarkably enhanced antitumor activity
effective dose-range (in words) [1, 5]: broader effective dose-range
Inhibition rate (SC-6 human gastric tumor; 2 mg/kg single i.v.): 71%
Numbers of died mice/mice used (SC-6 human gastric tumor; 2 mg/kg single i.v.): 0/5
Inhibition rate (SC-6 human gastric tumor; 8 mg/kg single i.v.): 100%
Numbers of died mice/mice used (SC-6 human gastric tumor; 8 mg/kg single i.v.): 0/5
death due to toxicity (in words) (SC-6 human gastric tumor; single i.v.): no death due to toxicity
antitumor activity (in words) (SC-6 human gastric tumor; [6]): higher antitumor activity compared to the drug compound, per se
Inhibition rate (Human lung cancer QG-90; 1.75 mg/kg single i.v.): 97%
Numbers of died mice/mice used (Human lung cancer QG-90; 1.75 mg/kg single i.v.): 0/5
Inhibition rate (Human lung cancer QG-90; 7 mg/kg single i.v.): 98%
Numbers of died mice/mice used (Human lung cancer QG-90; 7 mg/kg single i.v.): 0/5
antitumor activity (in words) (Human lung cancer QG-90; [6]): remarkably enhanced antitumor activity
effective dose-range (in words) (Human lung cancer QG-90; [6]): broader effective dose-range
distribution in tumor tissues [3]: high distribution in tumor tissues
retention of blood level [3]: extremely long retention of blood level
tumor selectivity against liver and small intestine [3]: high tumor selectivity against liver and small intestine

Carboxymethyldextran Polyalcohol-Gly-Gly-Phe-Gly-NH--A' (A--NH2 =DX-8951) [Example 9] ({carboxymethyldextran polyalcohol}-GGFG-Exatecan; also: N-terminus linked to carboxymethyldextran polyalcohol, C-terminus amide-linked to drug residue A' (DX-8951))
Inhibition rate ([4]; 0.35 × 4 mg/kg): 41%
Inhibition rate ([4]; 0.7 × 4 mg/kg): 59%
Inhibition rate ([4]; 1.4 × 4 mg/kg): 94%
antitumor activity (in words) [4, 7]: remarkably enhanced antitumor activity compared to the drug compound, per se
toxicity (weight loss) [4, 7]: no toxicity (weight loss)
Inhibition rate ([1]; Example 12 (Table 3), 2.5 mg/kg single, calculated based on the drug compound): 87%
Inhibition rate ([1]; Example 12 (Table 3), 5 mg/kg single, calculated based on the drug compound): 98%
antitumor activity (in words) [1, 5]: (Polysaccharide derivative)-Gly-Gly-Phe-Gly-NH--A'> (Polysaccharide derivative)-Gly-Gly-Gly-Phe-NH--A'> the drug compound, per se
